Here are results for one compound from publication PMC9848257, “Design and synthesis of novel rigid dibenzo[b,f]azepines through ring closure technique as promising anticancer candidates against leukaemia and acting as selective topoisomerase II inhibitors and DNA intercalators” (Journal of Enzyme Inhibition and Medicinal Chemistry, 2023).

The structures appear in SMILES notation.

Data set [1] concerns leukaemia SR cells. Put plainly: Anti-proliferative effect against SR cell line (MTT assay). In kind it is cell-based. The procedure:
The anti-proliferative effect of the 5e counterpart against the SR cell line was estimated using the MTT assay protocol.
Depending on the previous results, the cytotoxic activity of the designed candidate 5e was then evaluated against leukaemia SR cells. Doxorubicin was also evaluated as a reference drug.

The nature of data set [2]: Cytotoxic effect against normal cell line. In kind it is cell-based. Particulars: human, normal cell line PSC-800-011; read-out: Cytotoxicity IC50, PSC-800-011. The protocol: Following, the cytotoxic effect of compound 5e against a normal cell line, PSC-800–011, was also assigned to evaluate the selectivity of the compound towards the cancer cell lines. […] However, the selectivity index (SI) of compound 5e was also calculated to confirm its selectivity. It was known that any sample that has an SI value higher than 3 will be considered to have high selectivity.

For data set [3], the system named is SR cells. Description: Cell cycle analysis (propidium iodide staining). In kind it is cell-based. The protocol: This test was performed using propidium iodide (PI) staining following the detailed procedure in the supporting information (SI 3)[38].
The topoisomerase II inhibitory evaluation, besides the cytotoxicity results of the new compounds, encouraged us to assess the effect of 5e (the most promising candidate) on cell cycle progression in SR cells.
(§1) SI 3. Cell cycle analysis
(§2) Leukemia SR cells were grown in six-well plates (each one contains 2 x 10^5 cells per well) containing 10% fetal bovine serum and incubated for 24 h at 37 °C and 5% CO2. The medium was replaced with (DMSO 1% v/v) containing the 3.1 µM of compound 5e, then incubated for 48 h, collected and washed with cold phosphate buffered saline (PBS). After fixation of the collected cells with ice-cold absolute ethanol (70%), the cells were rinsed with PBS then stained with the DNA fluorochrome PI, kept for 15 min at 37 °C. Then samples were analyzed with a FACS Caliber flow cytometer.
(§3) SI 4. Detection of apoptosis
(§4) Apoptotic activity of compound 5e was evaluated using Annexin V-FITC/PI apoptosis detection kit.
(§5) Leukemia SR cells ([…]) were seeded and incubated with compound 5e for 48 h, trypsinized, collected and washed with phosphate-buffered saline (PBS) several times; SR cells were stained with Annexin V fluorescein isothiocyanate (FITC) and counterstained with propidium iodide (PI) for 15 min at 37 °C in the dark using the apoptosis detection kit (BD Biosciences, San Jose, CA) according to the manufacturer's protocol. Then, Annexin V-FITC and PI binding were analysed by a FACS Caliber flow cytometer.
(§6) SI 5.1. Animals and tumor cell line
(§7) Adult female Swiss albino mice purchased from Theodor Bilharzia Research Institute, Giza, Egypt, with an average body weight of (18-23) g was used. Mice were housed under constant conditions of 12 h light/dark cycle in a […], with free access to standard laboratory mice food and water. […]

In data set [4] the test system is SR cells. Description: Apoptosis analysis (Annexin-V staining assay). In kind it is cell-based. The protocol:
The apoptotic analysis was performed according to the detailed description in the supporting information (SI 4)[39].
Annexin-V staining assay was applied to determine the apoptosis induced by compound 5e. […] In detail, 13.61% and 24.33% for the early phase and late phase of apoptosis, respectively, with respect to the control (0.44%, and 0.16%, respectively). Annexin V/PI staining histograms are supported in the supporting information (Figure SI 2).
as §1, §2, §3, §4, §5, §6, §7

The test system of data set [5] is Solid Ehrlich carcinoma (SEC). Description: In vivo anti-tumour activity in SEC-bearing mice. Set-up: species or system Swiss albino mice. To be noted: 6 mg/Kg B.W., IP. The protocol: (§8) The full methodology of tumour induction, treatments, and blood measurements was carried out according to the described details in the supporting information (SI 5). Moreover, the experimental protocol was approved by the Research Ethics Committee at Suez Canal University (Approval number REC139/2022, Chemistry Department, Faculty of Science, Suez Canal University). […]
as §6
Adult female Swiss albino mice purchased from Theodor Bilharzia Research Institute, Giza, Egypt, with an average body weight of (18-23) g was used. Mice were housed under constant conditions of 12 h light/dark cycle in a […], with free access to standard laboratory mice food and water.
All procedures related to care and maintenance of the animals were performed according to the international guiding principles for animal research and approved by Faculty of Science, Suez Canal University bioethics and animal ethics committee (Approval number REC-01-2022).
Solid Ehrlich carcinoma (SEC) were got from the National Cancer Institute (Cairo University, Egypt). The tumor cell line was proliferated in mice through serial intraperitoneal (I.P.) transplantation of a volume of 0.2 mL physiological saline contains 1 × 10^6 viable cells for 24 h. SEC cells were collected 7 days after I.P. implantation. The harvested cells were diluted with saline to obtain a concentration of 5 × 10^6 viable SEC cells/mL. A volume of 0.2 mL saline contains 1 × 10^6 SEC cells […]
(§9) that were I.P. implanted into each normal mouse. SEC cells (1 × 10^6 tumor cells/mouse) were implanted subcutaneously into the right thigh of the hind limb.
(§10) The experimental animals were randomly divided into four groups. Group 1 served as the normal saline control. Group 2 served as the SEC control (1 × 10^6 cells/mouse). Group 3 served as the compound-treated group (6 mg/kg B.Wt., I.P.). Group 4 received the standard anticancer drug of […]
survival were recorded daily until the 24th day in both treated and control groups. At the end of experiment, the blood of each group was collected under light anesthesia for estimation of hematological and biochemical assays. The anesthetized animals were then sacrificed for evaluation of the antitumor activity and histopathological examination.
SI 5.2. Antitumor potentiality
It includes tumor volume, weight, and tumor inhibition ration (TIR%). Time interval measurements of tumor volume using digital Vernier caliper (Tricle Brand, Shanghai, China). Measure tumor length and width using clipper and then calculate tumor volume using formulations V = (L x W x W)/2, where V is tumor volume, W is tumor width, L is tumor length. While TIR% was calculated according to the following equation: […]. […]

Data set [6] in a line: Liver enzymes (ALT, AST) in SEC-bearing mice. To be noted: 6 mg/Kg B.W., IP. In kind it is in vivo, Swiss albino mice. The protocol: as §8, §9, §10
survival were recorded daily until the 24th day in both treated and control groups. At the end of experiment, the blood of each group was collected under light anesthesia for estimation of hematological and biochemical assays. The anesthetized animals were then sacrificed for evaluation of the antitumor activity and histopathological examination. […]
At the end of the experiment, animals from different groups were sacrificed, and blood samples were collected for determination of liver enzymes ALT, AST levels. Activities of aspartate aminotransferase (AST) and alanine aminotransferase (ALT) were evaluated using commercial kits (ELITech clinical systems, France). […]

As for `O=[N+]([O-])c1ccc(-c2nnc(N3c4ccccc4C=Cc4ccccc43)o2)cc1` [Compound 5e, 2-(5 h-Dibenzo[b,f]azepin-5-yl)-5–(4-nitrophenyl)-1,3,4-oxadiazole], the IC50 is 13.1 ± 0.62 µM in data set [1] (Homo sapiens, leukaemia SR cells, unit as in head of Table 3, read-out: Cytotoxicity IC50, SR) and 43.9 ± 2.68 µM in data set [2]. In addition, the “SI (selectivity index)” value in data set [1] (normal cell line PSC-800-011 versus SR) is reported as 3.36. Further, the “Cell cycle arrest phase” value in data set [3] is reported as “G1 phase”. In addition, the “Cell levels in G1 phase” value in data set [3] (3.1 µM of compound 5e, 48 h, control 52.84%) is listed as 61.29%. Besides, in data set [3] (3.1 µM of compound 5e, 48 h, untreated 34.18%), the “S phase % of the examined cells” value came to 36.86%. Also, in data set [4] (concentration equivalent to IC50 (13.05 µM), 48 h), the “Increase of the apoptosis ratio compared to the untreated cells” value was determined as 37.34%. For the same compound, the “Late phase of apoptosis” value in data set [4] (concentration equivalent to IC50, control 0.16%) was determined as 24.33%. Moreover, the “Early phase of apoptosis” value in data set [4] (concentration equivalent to IC50, control 0.44%) is 13.61%. The “Tumour inhibition ratio (TIR%)” value in data set [5] amounted to 62.7%. The same compound returned a Solid tumour mass in data set [5] (SEC control 226 mg) of 96.3 mg. For the same compound, the Tumour volume in data set [5] (SEC control 80.6 mm^3) turned out to be 30.1 mm^3. In data set [6] (SEC control 65.9 U/L), this compound yielded an ALT of 39.8 U/L. For the same compound, the AST in data set [6] (SEC control 71 U/L) is 35.6 U/L.
